Laboratory results from ChEMBL document CHEMBL1201862, “PubChem BioAssay data set” (2004).
Active and inactive are the calls of the source.

Legend:
[1] = NIH-3T3 fibroblast cytotoxicity, dose response, cytotoxicity control, cell-based, fluorescence, Alamar Blue, secondary assay (AID 2327); assay type: functional;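 also: NIH-3T3 mouse fibroblasts cultured with fluconazole at 8 µg/mL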
[2] = fluconazole-exposed Candida albicans growth modulators – fluorescence, retest, confirmation (AID 2467); assay type: functional, cell-based
HEK293 = assay: EBV LMP1 TES2 canonical NF-kB signalling blockers – cell-based, HEK293, luciferase, cherry-pick, dose response (AID 588343); assay type: functional; conditions: Homo sapiens
[3] = molecular target: T1, Latent membrane protein 1 (Human herpesvirus 4 (strain B95-8), UniProt P03230); assay: LMP1 TES1 pathway selectivity over dsRED control – imaging, HEK293T, dual-color eGFP/dsRED, cherry-picks, selectivity assay for LMP1 NF-kB inhibitor project, dose response (AID 588398); assay type: functional, cell-based
T1 sequence (P03230 whole entry): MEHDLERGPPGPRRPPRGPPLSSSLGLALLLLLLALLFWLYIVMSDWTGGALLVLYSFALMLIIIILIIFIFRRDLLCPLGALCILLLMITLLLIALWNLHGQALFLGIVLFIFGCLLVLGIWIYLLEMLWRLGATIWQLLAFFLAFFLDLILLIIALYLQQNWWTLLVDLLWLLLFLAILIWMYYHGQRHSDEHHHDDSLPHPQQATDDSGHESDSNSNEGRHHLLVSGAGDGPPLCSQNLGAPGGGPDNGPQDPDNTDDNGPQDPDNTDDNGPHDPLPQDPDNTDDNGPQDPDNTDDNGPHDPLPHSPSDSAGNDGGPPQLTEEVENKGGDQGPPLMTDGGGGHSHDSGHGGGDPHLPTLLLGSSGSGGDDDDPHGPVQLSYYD

Vero = assay: cells; assay type: functional; conditions: Chlorocebus sabaeus
[4] = reduction of Shn3 3'UTR-driven luciferase in osteoblasts – cell-based, Clone20 osteoblasts, firefly luciferase, cherry-picked, dose response (AID 624132); assay type: functional;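 also: firefly luciferase luminescence from reporter carrying the Shn3 3'UTR in osteoblasts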
[5] = loss of viability in HepG2 cells – cell-based, CellTiter-Glo, cherry-picked, cytotoxicity control for Shn3 inhibitor project, dose response (AID 624134); assay type: functional
[6] = non-specific 3'UTR reporter inhibition in Clone20-Shn3RL – cell-based, Renilla luciferase, cherry-picked, counter-screen for Shn3 inhibitor project, dose response (AID 624133); assay type: functional
[7] = molecular target: 26S proteasome non-ATPase regulatory subunit 14 (Homo sapiens, UniProt O00487); assay: inhibition of proteasome subunit RPN11 – biochemical, fluorescence polarization, uHTS hits, confirmation (AID 602368); assay type: functional
[8] = molecular target: 72 kDa type IV collagenase (Homo sapiens, UniProt P08253); assay: Dose Response validation of uHTS RPN11 inhibitor hits using a MMP-2 Fluorescence assay.; assay type: functional
Prothrombin = Prothrombin (Bos taurus, UniProt P00735); assay: thrombin protease inhibitors – biochemical, fluorescence polarization, uHTS hits, dose response (AID 602369); assay type: functional
[9] = molecular target: T2, Sentrin-specific protease 1 (Homo sapiens, UniProt Q9P0U3); assay: SENP1 catalytic domain blockers, concentration series – biochemical, kinetic FRET, dose response (AID 651697); assay type: functional; conditions: read-out: IC50_Mean
T2 sequence (Q9P0U3 whole entry): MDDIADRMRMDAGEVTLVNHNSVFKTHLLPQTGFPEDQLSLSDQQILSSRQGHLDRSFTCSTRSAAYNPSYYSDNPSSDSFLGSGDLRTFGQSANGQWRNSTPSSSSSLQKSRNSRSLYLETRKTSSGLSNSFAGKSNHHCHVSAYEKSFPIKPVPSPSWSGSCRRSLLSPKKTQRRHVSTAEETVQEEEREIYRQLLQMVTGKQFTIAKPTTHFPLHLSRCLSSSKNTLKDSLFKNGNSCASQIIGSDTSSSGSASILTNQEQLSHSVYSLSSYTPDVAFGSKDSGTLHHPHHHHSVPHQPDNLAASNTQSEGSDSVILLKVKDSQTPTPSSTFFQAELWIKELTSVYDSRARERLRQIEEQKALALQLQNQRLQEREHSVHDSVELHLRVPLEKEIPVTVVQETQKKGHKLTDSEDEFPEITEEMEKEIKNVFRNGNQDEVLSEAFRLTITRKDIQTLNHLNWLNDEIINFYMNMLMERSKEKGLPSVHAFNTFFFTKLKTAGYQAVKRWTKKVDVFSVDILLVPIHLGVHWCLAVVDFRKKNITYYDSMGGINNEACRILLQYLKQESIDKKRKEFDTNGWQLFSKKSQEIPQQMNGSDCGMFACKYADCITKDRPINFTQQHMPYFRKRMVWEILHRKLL

[10] = molecular target: T2, Sentrin-specific protease 1; assay: Dose response confirmation of small molecule inhibitors of the catalytic domain of the SUMO protease, SENP1 in a FRET assay.; assay type: functional; conditions: read-out: IC50_Mean
[11] = molecular target: T3, Rac GTPase-activating protein 1 (Homo sapiens, UniProt Q9H0H5); assay: blockers of MgcRacGAP-driven Rac1 GTP hydrolysis – biochemical, ADP Hunter fluorescence, primary and confirmatory, confirmation (AID 624330); assay type: functional
T3 sequence (Q9H0H5 whole entry): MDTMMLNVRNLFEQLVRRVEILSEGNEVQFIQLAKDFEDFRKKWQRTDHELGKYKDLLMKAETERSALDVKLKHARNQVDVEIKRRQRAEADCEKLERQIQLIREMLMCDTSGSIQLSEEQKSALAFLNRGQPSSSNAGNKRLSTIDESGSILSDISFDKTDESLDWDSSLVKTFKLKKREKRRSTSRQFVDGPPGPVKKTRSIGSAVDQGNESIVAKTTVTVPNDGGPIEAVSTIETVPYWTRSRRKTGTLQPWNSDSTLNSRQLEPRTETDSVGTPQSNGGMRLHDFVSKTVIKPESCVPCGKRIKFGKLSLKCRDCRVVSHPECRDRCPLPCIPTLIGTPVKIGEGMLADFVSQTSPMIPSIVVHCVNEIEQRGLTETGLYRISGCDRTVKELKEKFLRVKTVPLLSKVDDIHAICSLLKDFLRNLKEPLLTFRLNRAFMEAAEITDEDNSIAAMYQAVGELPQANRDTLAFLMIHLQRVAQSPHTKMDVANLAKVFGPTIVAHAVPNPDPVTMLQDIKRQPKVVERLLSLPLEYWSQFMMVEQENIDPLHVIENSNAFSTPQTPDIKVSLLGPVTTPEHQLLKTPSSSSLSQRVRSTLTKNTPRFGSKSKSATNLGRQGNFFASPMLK

[12] = Luminescence Cell-Based Dose Confirmation HTS to Identify Activators of 5'UTR Stem-Loop Driven Alpha-Synuclein mRNA Translation in H4 Neuroglioblastoma Cells. [Related pubchem assays: 1829 (Project Summary), 1814 (Primary HTS)]; assay type: functional
[13] = Luminescence Cell-Based Dose Response HTS to Identify Activators of Luciferase Translation or Activity in H4 […] Cells. [Related pubchem assays: 1829 (Project Summary), 1814 (Primary HTS)]; assay type: functional
H4 = assay: Luminescence Cell-Based Dose Response HTS to Identify Activators of 5'UTR Stem-Loop Driven Prion Protein mRNA Translation in H4 Neuroglioblastoma Cells. [Related pubchem assays: 1829 (Project Summary), 1814 (Primary HTS)]; assay type: functional; conditions: Homo sapiens
[14] = molecular target: T4, Endoribonuclease toxin MazF (Escherichia coli K-12, UniProt P0AE70); assay: activation of MazEF endoribonuclease cleavage – biochemical, fluorescence, single-stranded RNA substrate, uHTS hits, dose response (AID 588481); assay type: functional
T4 sequence (P0AE70 whole entry): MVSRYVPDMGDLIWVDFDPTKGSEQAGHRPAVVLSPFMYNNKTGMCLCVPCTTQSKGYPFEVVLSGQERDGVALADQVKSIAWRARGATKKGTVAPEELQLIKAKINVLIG

[15] = molecular target: T4, Endoribonuclease toxin MazF; assay: substrate-only fluorescence increase artefacts – biochemical, single-stranded RNase substrate, counter-screen for MazEF activator project, dose response (AID 588502); assay type: functional
[16] = molecular target: Ras and Rab interactor 1/Tyrosine-protein kinase ABL1 (Homo sapiens, UniProt P00519+Q13671); assay type: functional;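 also: biochemical TR-FRET dose-response test measuring inhibition of binding between Rin1 and Abl proteins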
Chain of Ras and Rab interactor 1/Tyrosine-protein kinase ABL1 (P00519 whole entry): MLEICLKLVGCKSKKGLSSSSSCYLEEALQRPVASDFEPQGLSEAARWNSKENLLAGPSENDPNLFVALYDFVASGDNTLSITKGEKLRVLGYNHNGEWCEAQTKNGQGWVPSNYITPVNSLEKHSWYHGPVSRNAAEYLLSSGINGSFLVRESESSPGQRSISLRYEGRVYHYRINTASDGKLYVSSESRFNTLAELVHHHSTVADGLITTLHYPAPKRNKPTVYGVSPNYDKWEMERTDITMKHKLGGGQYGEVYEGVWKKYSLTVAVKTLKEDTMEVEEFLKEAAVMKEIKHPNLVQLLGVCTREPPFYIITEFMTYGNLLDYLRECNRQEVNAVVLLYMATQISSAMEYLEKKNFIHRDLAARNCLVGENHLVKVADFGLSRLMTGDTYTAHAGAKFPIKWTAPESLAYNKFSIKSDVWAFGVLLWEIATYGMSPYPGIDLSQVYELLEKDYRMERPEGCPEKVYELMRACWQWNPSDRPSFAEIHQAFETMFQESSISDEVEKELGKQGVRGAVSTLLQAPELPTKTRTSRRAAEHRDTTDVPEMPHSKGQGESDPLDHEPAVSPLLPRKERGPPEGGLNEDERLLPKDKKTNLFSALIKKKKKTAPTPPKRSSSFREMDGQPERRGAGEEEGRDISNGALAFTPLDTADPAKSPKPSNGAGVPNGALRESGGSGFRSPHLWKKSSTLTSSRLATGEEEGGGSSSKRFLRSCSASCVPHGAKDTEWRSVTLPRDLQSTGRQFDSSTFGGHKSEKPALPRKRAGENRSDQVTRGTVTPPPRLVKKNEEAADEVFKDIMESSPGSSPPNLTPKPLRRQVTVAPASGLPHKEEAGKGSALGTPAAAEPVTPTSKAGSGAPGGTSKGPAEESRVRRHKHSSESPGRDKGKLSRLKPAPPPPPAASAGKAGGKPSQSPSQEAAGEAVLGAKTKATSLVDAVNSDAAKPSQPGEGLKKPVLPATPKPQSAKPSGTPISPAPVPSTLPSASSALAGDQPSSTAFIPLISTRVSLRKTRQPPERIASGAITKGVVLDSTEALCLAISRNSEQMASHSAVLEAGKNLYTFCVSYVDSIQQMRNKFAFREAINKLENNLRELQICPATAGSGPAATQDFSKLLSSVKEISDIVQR
Chain of Ras and Rab interactor 1/Tyrosine-protein kinase ABL1 (Q13671 whole entry): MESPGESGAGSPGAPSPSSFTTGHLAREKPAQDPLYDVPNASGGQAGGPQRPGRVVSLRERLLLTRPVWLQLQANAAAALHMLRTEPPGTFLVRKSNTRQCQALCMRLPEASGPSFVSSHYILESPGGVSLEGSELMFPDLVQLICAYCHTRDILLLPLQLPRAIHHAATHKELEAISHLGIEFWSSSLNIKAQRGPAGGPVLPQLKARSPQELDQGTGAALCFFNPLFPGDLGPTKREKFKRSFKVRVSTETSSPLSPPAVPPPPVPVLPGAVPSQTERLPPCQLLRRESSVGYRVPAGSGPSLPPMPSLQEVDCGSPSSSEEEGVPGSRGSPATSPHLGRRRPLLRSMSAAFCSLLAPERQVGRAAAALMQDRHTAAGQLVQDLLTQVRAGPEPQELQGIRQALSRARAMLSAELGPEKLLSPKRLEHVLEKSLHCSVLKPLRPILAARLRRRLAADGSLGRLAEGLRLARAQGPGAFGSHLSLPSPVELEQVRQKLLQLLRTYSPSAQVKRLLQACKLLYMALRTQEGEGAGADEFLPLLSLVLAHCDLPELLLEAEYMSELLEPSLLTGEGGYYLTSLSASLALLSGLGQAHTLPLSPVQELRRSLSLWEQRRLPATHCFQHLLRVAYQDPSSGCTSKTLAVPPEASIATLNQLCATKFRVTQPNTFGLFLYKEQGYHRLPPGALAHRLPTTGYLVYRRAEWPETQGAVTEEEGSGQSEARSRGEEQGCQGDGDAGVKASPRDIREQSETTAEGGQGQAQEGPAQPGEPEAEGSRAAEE

Chain of 72 kDa type IV collagenase (P08253 whole entry): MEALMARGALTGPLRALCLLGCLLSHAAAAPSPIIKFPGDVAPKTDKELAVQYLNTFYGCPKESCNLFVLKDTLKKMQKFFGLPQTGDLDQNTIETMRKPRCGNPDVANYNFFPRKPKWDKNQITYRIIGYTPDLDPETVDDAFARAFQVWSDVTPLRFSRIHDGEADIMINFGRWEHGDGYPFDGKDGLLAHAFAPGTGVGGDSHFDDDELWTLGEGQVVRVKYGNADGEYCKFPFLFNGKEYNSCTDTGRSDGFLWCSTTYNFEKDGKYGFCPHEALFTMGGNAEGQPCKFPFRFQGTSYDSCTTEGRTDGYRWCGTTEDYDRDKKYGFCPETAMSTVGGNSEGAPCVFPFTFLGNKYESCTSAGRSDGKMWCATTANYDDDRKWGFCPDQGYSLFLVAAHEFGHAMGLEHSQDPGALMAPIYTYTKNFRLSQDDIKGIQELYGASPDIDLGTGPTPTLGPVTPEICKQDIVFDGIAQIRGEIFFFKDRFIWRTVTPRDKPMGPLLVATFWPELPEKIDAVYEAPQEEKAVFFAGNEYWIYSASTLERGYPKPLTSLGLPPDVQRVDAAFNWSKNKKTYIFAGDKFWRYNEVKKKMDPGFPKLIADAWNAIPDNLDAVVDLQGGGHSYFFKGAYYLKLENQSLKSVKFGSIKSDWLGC
Chain of 26S proteasome non-ATPase regulatory subunit 14 (O00487 whole entry): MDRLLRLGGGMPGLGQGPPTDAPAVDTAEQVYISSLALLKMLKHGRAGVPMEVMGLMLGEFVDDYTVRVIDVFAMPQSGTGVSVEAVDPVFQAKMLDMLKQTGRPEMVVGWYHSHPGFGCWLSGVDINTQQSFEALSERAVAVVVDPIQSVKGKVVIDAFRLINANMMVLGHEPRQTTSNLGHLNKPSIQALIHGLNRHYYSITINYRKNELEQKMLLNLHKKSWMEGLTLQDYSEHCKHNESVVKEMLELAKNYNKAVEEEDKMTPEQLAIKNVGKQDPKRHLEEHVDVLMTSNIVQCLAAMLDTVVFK

Q: With `COc1ccc(C(=O)NC(=S)NNC(=O)c2ccc3ccccc3n2)cc1` as the compound, how does the EC50 [1] read?
A: 28.4 µM (active)

Q: What about the EC50 [2] of the same compound?
A: 3.06 µM (active)

Q: What about the AC50 (HEK293) of the same compound?
A: 13.6 µM (active)

Q: What about the AC50 [3] of the same compound?
A: 26.8 µM (active)

Q: And the CC50 (Vero)?
A: 10.1 µM (active)

Q: What about the AC50 [4] of the same compound?
A: 4.32 µM (active)

Q: And the AC50 [5]?
A: 41.5 µM (active)

Q: What about the AC50 [6] of the same compound?
A: 1.37 µM (active)

Q: Which results are given for `CCOC(=O)C1CCCN(C2=NC(=O)/C(=C/c3ccc(O)c(OC)c3)S2)C1` (stereo not given)?
A: IC50 [7]: 26.3 µM (active); IC50 [8]: > 100 µM (inactive); IC50 (Prothrombin): 40.6 µM (active); IC50 [9]: 2.97 µM (active); IC50 [10]: 2.49 µM (active); IC50 [11]: 19.6 µM (active)

Q: Which results are given for `COc1cc(/C=C2/C(=O)N(C)C(=S)N2C)ccc1OCc1cccc(F)c1`?
A: EC50 [12]: > 120 µM (not active); EC50 [13]: > 120 µM (not active); EC50 (H4): 4.24 µM (active); EC50 [14]: > 99 µM (inactive); EC50 [15]: > 99 µM (inactive)

Q: With `CCOC(=O)CCCCC(=O)c1[nH]c(O)nc1C[n+]1ccc(C)cc1` as the compound, how does the IC50 [16] read?
A: 5.77 µM (active)
